# Results: ChEMBL document CHEMBL3301361, “Experimental in vitro DMPK and physicochemical data on a set of publicly disclosed compounds”
# Key:
# physchem = details: octan-1-ol/water, pH 7.4, LogD7.4
# in vitro = details: human, plasma, PPB
Structure (SMILES),logD (physchem),fraction unbound at 5 h (in vitro)
O=c1cc(-c2ccccc2)ccn1-c1ccc2c(cnn2CCN2CCCC2)c1,1.6,0.17
COc1cc(OC)c2nc(C)c3c(c2c1)N(c1ccc(O)cc1)CC3,1.5,0.112
Cc1cc(Nc2nc(N[C@@H](C)c3ncc(F)cn3)ncc2F)n[nH]1,1.79,0.471
CN[C@@H](C)C(=O)N[C@H](C(=O)N[C@H]1CCN(Cc2ccccc2)C1)C1CCCCC1,1.49,0.511
CN[C@@H](C)C(=O)N[C@H](C(=O)N[C@H]1CCCN(CCc2ccccc2)C1)C(C)(C)C,1.46,0.506
CC(C)Cn1c(=O)n(C)c(=O)c2c(C(=O)N3CC[C@@H](O)C3)c(Cc3c[nH]c4ncccc34)sc21,1.71,0.314
Cc1nc(Cl)c(Cl)n1Cc1sc2c(c1C(=O)N1CC[C@@H](O)C1)c(=O)n(C)c(=O)n2CC(C)C,1.61,0.089
CS(=O)(=O)c1ccc2c(C(=O)NC[C@@H](O)CN3CCC(Oc4ccc(C#N)c(Cl)c4)CC3)c[nH]c(=O)c2c1,1.41,0.319
O=C(NO)C1COC(c2ccc(F)c(C(F)(F)F)c2)=N1 (stereo unspecified),1.53,0.0836
COc1ccc(NC(=O)c2ccnc(N)n2)cc1,1.72,0.289
NC(=O)Nc1sc(-c2ccc(CN3CCCCC3)cc2)cc1C(N)=O,1.75,0.334
O=C(CC12CC3CC(CC(C3)C1)C2)Nc1cccc2nc(NCCNCCO)ccc12,1.79,0.0457

# Next, values leading:
logD (physchem),fraction unbound at 5 h (in vitro),Structure (SMILES)
1.75,0.173,Cc1[nH]c(/C=C2\C(=O)Nc3ccc(F)cc32)c(C)c1C(=O)NCCN(C)C
1.75,0.28,Cc1cc(Nc2nc(N[C@@H](C)c3ncc(F)cn3)ncc2C)n[nH]1
1.65,0.329,CN[C@@H](C)C(=O)N[C@H](C(=O)N[C@H]1CCCN(CCc2ccccc2)C1)C1CCCCC1
1.65,0.443,CN[C@@H](C)C(=O)N[C@H](C(=O)N[C@H]1CCN(CCc2ccccc2)C1)C1CCCCC1
1.61,0.258,CN[C@@H](C)C(=O)N[C@H](C(=O)N[C@H]1CCCN(CCc2ccccc2OC)C1)C(C)(C)C
1.54,0.262,CN[C@@H](C)C(=O)N[C@H](C(=O)N[C@H]1CCCN(CCc2ccc([N+](=O)[O-])cc2)C1)C(C)(C)C
1.6,0.005,COc1cc(OC)c(S(=O)(=O)N(c2ccccc2)C(C)C)cc1NC(C)=O
1.72,0.212,COc1ccc([C@]2(O)CC[C@H](N3CC[C@@H](NC(=O)CNC(=O)c4cccc(C(F)(F)F)c4)C3)CC2)cn1
1.61,0.0676,Cn1ncc2c(=O)[nH]c(-c3ccccc3)nc21
1.55,0.134,COc1ccc(-c2nc3c(OCC4CCNCC4)c(Br)cnc3[nH]2)cc1
1.62,0.101,CC(=O)Nc1ccc2ccn(-c3cc(NCCCN(C)C)n4ncc(C#N)c4n3)c2c1
1.49,0.062,Cc1cn([C@H]2CCCN(S(=O)(=O)c3ccc(O)c(Oc4ccccc4)c3)C2)c(=O)[nH]c1=O
1.6,0.0457,Cc1cn([C@H]2CCCN(S(=O)(=O)c3ccc(O)c(Oc4cccc(F)c4)c3)C2)c(=O)[nH]c1=O
1.73,0.0086,Cc1nc(CSc2nc(N[C@H](C)CO)c3sc(=O)[nH]c3n2)cs1
1.61,0.319,CNc1nc2ccccc2n1Cc1sc2c(c1C(=O)N1CC[C@@H](O)C1)c(=O)n(C)c(=O)n2CC(C)C
1.73,0.16,Cc1cc(Nc2nc(N[C@@H](C)c3ccc(F)cn3)cnc2C)[nH]n1
